Test results: EP2931723B1, “NEW BICYCLIC COMPOUNDS AND THEIR USE AS ANTIBACTERIAL AGENTS AND -LACTAMASE INHIBITORS” (Fedora Pharmaceuticals Inc., priority 2012, dated 2014)

Legend:
Experiment in all cases: MIC, antibacterial and synergistic activity
Assay type in all cases: cell-based
[1] = test system: K.pneumo JMI 4109; conditions: K.pneumo JMI 4109 (SHV-1, SHV-12); substance alone
[2] = test system: E. coli JMI 10767; conditions: E. coli JMI 10767 (Wt)
[3] = test system: E. coli JMI 4080
[4] = test system: K. pneumo JMI 2674; conditions: K. pneumo JMI 2674 (CTX-M15 (ESBL)); substance alone
[5] = test system: K. pneumo JMI 2681; conditions: K. pneumo JMI 2681 (Oxa-48 (Cpase))
[6] = test system: E. coli JMI 11103
[7] = test system: K. pneumo JMI 4088; conditions: K. pneumo JMI 4088 (KPC-3 (Cpase)); substance alone
[8] = test system: P. aerug JMI 2686; conditions: P. aerug JMI 2686 (KPC-2 (Cpase)); substance alone
[9] = test system: E.coli JMI 4103; conditions: E.coli JMI 4103 (KPC-2, Tem-1, CMY-Type)
[10] = test system: E. coli JMI 10768; conditions: E. coli JMI 10768 (CTX-M15 (Weak ESBL)); Meropenem + inhibitor at 4 µg/mL
[11] = test system: E. coli JMI 10770; conditions: Escherichia coli, JMI10770; E. coli JMI 10770 (CTX-M15 (Hyper ESBL)); substance alone
[12] = test system: E. coli ATCC 25922; conditions: E. coli ATCC 25922 (Wt)
[13] = test system: E. cloacae JMI 36; conditions: E. cloacae JMI 36 (P99)
[14] = test system: K. pneumo JMI 2693; conditions: K. pneumo JMI 2693 (NDM-1 (Cpase))
Procedure: (§1) In the Tables 10 - 12, compounds herein disclosed were tested in combination with various antibiotics against metallo β-lactamase producing bacteria.

[15] = test system: K. pneumo JMI 2697; conditions: K. pneumo JMI 2697 (IMP-4 (Cpase))
Procedure: as §1

[16] = test system: E. coli JMI 2692; conditions: E. coli JMI 2692 (NDM-1, TEM-1, CTX-M-15)
Procedure: as §1

[17] = test system: K. pneumo JMI 4106; conditions: K. pneumo JMI 4106 (KPC-3, TEM-1, SHV-12, SHV-141)
[18] = test system: A. baumanii JMI 2659; conditions: A. baumanii JMI 2659 (Ges-14 (Cpase))
[19] = test system: E. coli JMI 2671
In short: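 MBL strains; antibiotic + inhibitor 4 µg/mL; MIC.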

[20] = test system: E. coli JMI 2665
Procedure: In the Tables 10 - 12, compounds herein disclosed were tested in combination with various antibiotics against metallo β-lactamase producing bacteria. Table 3: Synergy of the inhibitor Ex. 1 (4 µg/mL) in combination with antibiotics

[21] = test system: P. aerug JMI 149; conditions: P. aerug JMI 149 (Bla+++D+)
[22] = test system: K. pneumo JMI 2673; conditions: K. pneumo JMI 2673 (CTX-M14 (ESBL)); substance alone
[23] = Meropenem + inhibitor at 4 µg/mL
[24] = Aztreonam + inhibitor at 4 µg/mL
[25] = Ceftazidime + inhibitor at 4 µg/mL

Structure (SMILES): CC(=O)NNC(=O)[C@@H]1CC[C@@H]2CN1C(=O)N2OS(=O)(=O)O [Ex. 5, (2S,5R)-N'-acetyl-7-oxo-6-(sulfooxy)-1,6-diazabicyclo[3.2.1]octane-2-carbohydrazide]
- MIC [1]: > 16 µg/mL
- MIC Meropenem + inhibitor [2, 23]: ≤0.031 µg/mL
- MIC ([2]; Escherichia coli, JMI10767, substance alone): 8 µg/mL
- MIC Aztreonam + inhibitor ([3]; E. coli JMI 4080 (Tem-10), Aztreonam + inhibitor at 4 µg/mL): ≤0.062 µg/mL
- MIC Ceftazidime + inhibitor ([3]; E. coli JMI 4080 (Tem-10), Ceftazidime + inhibitor at 4 µg/mL): ≤0.25 µg/mL
- MIC Meropenem + inhibitor ([3]; E. coli JMI 4080 (Tem-10), Meropenem + inhibitor at 4 µg/mL): ≤0.031 µg/mL
- MIC ([3]; Escherichia coli, JMI4080, E. coli JMI 4080 (Tem-10), substance alone): 2 µg/mL
- MIC [4]: > 16 µg/mL
- MIC Aztreonam + inhibitor [5, 24]: 0.5 µg/mL
- MIC Ceftazidime + inhibitor [5, 25]: ≤0.25 µg/mL
- MIC Meropenem + inhibitor [5, 23]: 2 µg/mL
- MIC ([5]; substance alone, read-out: MIC): 16 µg/mL
- MIC Aztreonam + inhibitor ([6]; E. coli JMI 11103 (CTX-M15 (Intermediate ESBL)), Aztreonam + inhibitor at 4 µg/mL): ≤0.062 µg/mL
- MIC Ceftazidime + inhibitor ([6]; E. coli JMI 11103 (CTX-M15 (Intermediate ESBL)), Ceftazidime + inhibitor at 4 µg/mL): ≤0.25 µg/mL
- MIC Meropenem + inhibitor ([6]; E. coli JMI 11103 (CTX-M15 (Intermediate ESBL)), Meropenem + inhibitor at 4 µg/mL): ≤0.031 µg/mL
- MIC ([6]; Escherichia coli, JMI11103, E. coli JMI 11103 (CTX-M15 (Intermediate ESBL)), substance alone): 8 µg/mL
- MIC [7]: > 16 µg/mL
- MIC [8]: 16 µg/mL
- MIC Aztreonam + inhibitor [9, 24]: ≤0.062 µg/mL
- MIC Ceftazidime + inhibitor [9, 25]: ≤0.25 µg/mL
- MIC Meropenem + inhibitor [9, 23]: ≤0.031 µg/mL
- MIC ([9]; Escherichia coli, JMI4103, substance alone): 8 µg/mL
- MIC Meropenem + inhibitor [10]: ≤0.031 µg/mL
- MIC [11]: 8 µg/mL
- MIC Aztreonam + inhibitor [12, 24]: ≤0.062 µg/mL
- MIC Ceftazidime + inhibitor [12, 25]: ≤0.25 µg/mL
- MIC Meropenem + inhibitor [12, 23]: ≤0.031 µg/mL
- MIC ([12]; Escherichia coli, ATCC25922, substance alone): 2 µg/mL
- MIC Aztreonam + inhibitor [13, 24]: >4 µg/mL
- MIC Ceftazidime + inhibitor [13, 25]: 16 µg/mL
- MIC Meropenem + inhibitor [13, 23]: 0.125 µg/mL
- MIC ([13]; Enterobacter cloacae, JMI36, substance alone, read-out: MIC): > 16 µg/mL
- MIC Aztreonam + inhibitor [14, 24]: 0.5 µg/mL
- MIC Ceftazidime + inhibitor [14, 25]: 0.5 µg/mL
- MIC Meropenem + inhibitor [14, 23]: 0.125 µg/mL
- MIC ([14]; substance alone): > 16 µg/mL
- MIC Aztreonam + inhibitor [15, 24]: ≤0.062 µg/mL
- MIC Ceftazidime + inhibitor [15, 25]: >2 µg/mL
- MIC Meropenem + inhibitor [15, 23]: 0.125 µg/mL
- MIC ([15]; substance alone): 16 µg/mL
- MIC Aztreonam + inhibitor [16, 24]: ≤0.062 µg/mL
- MIC Ceftazidime + inhibitor [16, 25]: ≤0.25 µg/mL
- MIC Meropenem + inhibitor [16, 23]: ≤0.031 µg/mL
- MIC ([16]; Escherichia coli, JMI2692, substance alone, read-out: MIC): 2 µg/mL
- MIC Aztreonam + inhibitor [17, 24]: 1 µg/mL
- MIC Ceftazidime + inhibitor [17, 25]: 0.5 µg/mL
- MIC Meropenem + inhibitor [17, 23]: 2 µg/mL
- MIC ([17]; substance alone, read-out: MIC): > 16 µg/mL
- MIC Aztreonam + inhibitor [18, 24]: >4 µg/mL
- MIC Ceftazidime + inhibitor [18, 25]: >16 µg/mL
- MIC Meropenem + inhibitor [18, 23]: >2 µg/mL
- MIC ([18]; Acinetobacter baumannii, JMI2659, substance alone, read-out: MIC): > 16 µg/mL
- MIC Aztreonam + inhibitor ([19]; E. coli JMI 2671 (VIM-19 (Cpase)), Aztreonam + inhibitor at 4 µg/mL): ≤0.062 µg/mL
- MIC Ceftazidime + inhibitor ([19]; E. coli JMI 2671 (VIM-19 (Cpase)), Ceftazidime + inhibitor at 4 µg/mL): 2 µg/mL
- MIC Meropenem + inhibitor ([19]; E. coli JMI 2671 (VIM-19 (Cpase)), Meropenem + inhibitor at 4 µg/mL): 0.25 µg/mL
- MIC ([19]; Escherichia coli, JMI2671, E. coli JMI 2671 (VIM-19 (Cpase)), substance alone): 16 µg/mL
- MIC Aztreonam + inhibitor ([20]; E. coli JMI 2665 (CMY-2 (Plasmid Cpase)), Aztreonam + inhibitor at 4 µg/mL): ≤0.062 µg/mL
- MIC Ceftazidime + inhibitor ([20]; E. coli JMI 2665 (CMY-2 (Plasmid Cpase)), Ceftazidime + inhibitor at 4 µg/mL): ≤0.25 µg/mL
- MIC Meropenem + inhibitor ([20]; E. coli JMI 2665 (CMY-2 (Plasmid Cpase)), Meropenem + inhibitor at 4 µg/mL): ≤0.031 µg/mL
- MIC ([20]; Escherichia coli, JMI2665): 2 µg/mL
- MIC Aztreonam + inhibitor [21, 24]: >4 µg/mL
- MIC Ceftazidime + inhibitor [21, 25]: >16 µg/mL
- MIC Meropenem + inhibitor [21, 23]: 0.5 µg/mL
- MIC ([21]; substance alone, read-out: MIC): > 16 µg/mL
- MIC [22]: > 16 µg/mL
